# Measurements as given in ChEMBL document CHEMBL4308841, “Synthesis, in vitro antiproliferative activity, and kinase inhibitory effects of pyrazole-containing diarylureas and diarylamides” (Eur J Med Chem, 2018).
# Assays:
# [1] = test system: MOLT-4; experiment: Growth inhibition of human MOLT4 cells assessed as cell growth at 0.1 uM incubated for 48 hrs by sulforhodamine B assay relative to control; type: functional; details: MOLT-4, 48 h, read-out: Activity
# [2] = test system: K562; experiment: Growth inhibition of human K562 cells assessed as cell growth at 0.01 uM incubated for 48 hrs by sulforhodamine B assay relative to control; type: functional; details: K562, 48 h, read-out: Activity
# [3] = test system: CAKI-1; experiment: Growth inhibition of human Caki1 cells assessed as cell growth at 0.01 uM incubated for 48 hrs by sulforhodamine B assay relative to control; type: functional; details: CAKI-1, 48 h, read-out: Activity
# [4] = test system: PC-3; experiment: Growth inhibition of human PC3 cells assessed as cell growth at 1 uM incubated for 48 hrs by sulforhodamine B assay relative to control; type: functional; details: PC-3, 48 h, read-out: Activity
# [5] = test system: HCT-116; experiment: Growth inhibition of human HCT116 cells assessed as cell growth at 100 uM incubated for 48 hrs by sulforhodamine B assay relative to control; type: functional; details: HCT-116, 48 h, read-out: Activity
# [6] = test system: MOLT-4; experiment: Growth inhibition of human MOLT4 cells assessed as cell growth at 100 uM incubated for 48 hrs by sulforhodamine B assay relative to control; type: functional; details: MOLT-4, 48 h, read-out: Activity
# [7] = test system: M14; experiment: Growth inhibition of human M14 cells assessed as cell growth at 1 uM incubated for 48 hrs by sulforhodamine B assay relative to control; type: functional; details: M14, 48 h, read-out: Activity
# [8] = test system: UO-31; experiment: Growth inhibition of human UO31 cells incubated for 48 hrs by sulforhodamine B assay; type: functional, cell-based; details: UO-31, 48 h
# [9] = test system: MCF7; experiment: Growth inhibition of human MCF7 cells assessed as cell growth at 1 uM incubated for 48 hrs by sulforhodamine B assay relative to control; type: functional; details: MCF7, 48 h, read-out: Activity
# [10] = test system: CCRF-CEM; experiment: Growth inhibition of human CCRF-CEM cells assessed as cell growth at 100 uM incubated for 48 hrs by sulforhodamine B assay relative to control; type: functional; details: read-out: Activity
# [11] = test system: NCI/ADR-RES; experiment: Growth inhibition of human NCI/ADR-RES cells assessed as cell growth at 100 uM incubated for 48 hrs by sulforhodamine B assay relative to control; type: functional; details: read-out: Activity
# [12] = test system: SR; experiment: Growth inhibition of human SR cells assessed as cell growth at 100 uM incubated for 48 hrs by sulforhodamine B assay relative to control; type: functional; details: read-out: Activity
# [13] = test system: HT-29; experiment: Growth inhibition of human HT-29 cells assessed as cell growth at 0.01 uM incubated for 48 hrs by sulforhodamine B assay relative to control; type: functional; details: HT-29, 48 h, read-out: Activity
# [14] = test system: HL-60(TB); experiment: Growth inhibition of human HL-60(TB) cells assessed as cell growth at 0.01 uM incubated for 48 hrs by sulforhodamine B assay relative to control; type: functional; details: HL-60, 48 h, read-out: Activity
# [15] = test system: MDA-MB-231; experiment: Growth inhibition of human MDA-MB-231 cells incubated for 48 hrs by sulforhodamine B assay; type: functional, cell-based; details: MDA-MB-231, 48 h
# [16] = test system: IGROV-1; experiment: Growth inhibition of human IGROV1 cells assessed as cell growth at 0.1 uM incubated for 48 hrs by sulforhodamine B assay relative to control; type: functional; details: IGROV-1, 48 h, read-out: Activity
# [17] = test system: HL-60(TB); experiment: Growth inhibition of human HL-60(TB) cells assessed as cell growth at 100 uM incubated for 48 hrs by sulforhodamine B assay relative to control; type: functional; details: HL-60, 48 h, read-out: Activity
# [18] = test system: U-251; experiment: Growth inhibition of human U251 cells assessed as cell growth at 0.1 uM incubated for 48 hrs by sulforhodamine B assay relative to control; type: functional; details: U-251, 48 h, read-out: Activity
# [19] = test system: T47D; experiment: Growth inhibition of human T47D cells incubated for 48 hrs by sulforhodamine B assay; type: functional, cell-based
# [20] = test system: Malme-3M; experiment: Growth inhibition of human MALME-3M cells assessed as cell growth at 0.01 uM incubated for 48 hrs by sulforhodamine B assay relative to control; type: functional; details: read-out: Activity
# [21] = test system: HL-60(TB); experiment: Growth inhibition of human HL-60(TB) cells assessed as cell growth at 1 uM incubated for 48 hrs by sulforhodamine B assay relative to control; type: functional; details: HL-60, 48 h, read-out: Activity
# [22] = test system: MDA-MB-468; experiment: Growth inhibition of human MDA-MB-468 cells assessed as cell growth at 1 uM incubated for 48 hrs by sulforhodamine B assay relative to control; type: functional; details: MDA-MB-468, 48 h, read-out: Activity
# [23] = test system: SK-MEL-28; experiment: Growth inhibition of human SK-MEL-28 cells incubated for 48 hrs by sulforhodamine B assay; type: functional, cell-based; details: SK-MEL-28, 48 h
# [24] = test system: UACC-257; experiment: Growth inhibition of human UACC257 cells incubated for 48 hrs by sulforhodamine B assay; type: functional, cell-based; details: UACC-257, 48 h
# [25] = test system: RXF 393; experiment: Growth inhibition of human RXF393 cells assessed as cell growth at 0.01 uM incubated for 48 hrs by sulforhodamine B assay relative to control; type: functional; details: RXF 393, 48 h, read-out: Activity
# [26] = test system: SNB-75; experiment: Growth inhibition of human SNB75 cells incubated for 48 hrs by sulforhodamine B assay; type: functional, cell-based; details: SNB-75, 48 h
# [27] = test system: KM12; experiment: Growth inhibition of human KM12 cells incubated for 48 hrs by sulforhodamine B assay; type: functional, cell-based; details: KM12, 48 h
# [28] = test system: A549; experiment: Growth inhibition of human A549/ATCC cells incubated for 48 hrs by sulforhodamine B assay; type: functional, cell-based; details: A549, 48 h
# [29] = test system: HT-29; experiment: Growth inhibition of human HT-29 cells assessed as cell growth at 1 uM incubated for 48 hrs by sulforhodamine B assay relative to control; type: functional; details: HT-29, 48 h, read-out: Activity
# [30] = read-out: LC50 (the source's name)
# [31] = read-out: pLC50 (the source's name) (converted)
smiles,measurement,setting,value
O=C(Nc1cccc(-n2cc(-c3ccncc3)c(-c3cc(O)cc(Cl)c3)n2)c1)Nc1ccc(Cl)c(C(F)(F)F)c1,growth at 0.1 µM,[1],92%
same,growth at 0.01 µM,[2],101%
same,growth at 0.01 µM,[3],102%
same,growth at 1 µM,[4],83%
same,growth at 100 µM,[5],-57%
same,growth at 100 µM,[6],-39%
same,growth at 1 µM,[7],83%
same,IC50,[8],2.1 µM
same,GI50,[8]; read-out: GI50,2.1 µM
same,CC50,[8]; [30],34.7 µM
same,TGI,[8]; read-out: TGI,61.4 µM
same,GI50,[8]; read-out: pGI50 (converted),2.63 µM
same,CC50,[8]; [31],34.7 µM
same,TGI,[8]; read-out: pTGI (converted),6.17 µM
same,growth at 1 µM,[9],91%
same,growth at 100 µM,[10],-3%
same,growth at 100 µM,[11],-15%
same,growth at 100 µM,[12],-40%
same,growth at 0.01 µM,[13],98%
same,growth at 0.01 µM,[14],95%
same,GI50,[15]; read-out: GI50,1.55 µM
same,CC50,[15]; [30],> 100 µM
same,TGI,[15]; read-out: TGI,50.6 µM
same,GI50,[15]; read-out: pGI50 (converted),1.86 µM
same,CC50,[15]; [31],> 100 µM
same,TGI,[15]; read-out: pTGI (converted),5.89 µM
same,growth at 0.1 µM,[16],98%
same,growth at 100 µM,[17],-15%
same,growth at 0.1 µM,[18],91%
same,GI50,[19]; read-out: GI50,2.44 µM
same,CC50,[19]; [30],91.5 µM
same,TGI,[19]; read-out: TGI,92.7 µM
same,GI50,[19]; read-out: pGI50 (converted),2.45 µM
same,CC50,[19]; [31],91.2 µM
same,TGI,[19]; read-out: pTGI (converted),9.33 µM
same,growth at 0.01 µM,[20],93%
same,growth at 1 µM,[21],113%
same,growth at 1 µM,[22],75%
same,GI50,[23]; read-out: GI50,2.01 µM
same,CC50,[23]; [30],25.5 µM
same,TGI,[23]; read-out: TGI,62 µM
same,GI50,[23]; read-out: pGI50 (converted),2 µM
same,CC50,[23]; [31],26.3 µM
same,TGI,[23]; read-out: pTGI (converted),6.17 µM
same,GI50,[24]; read-out: GI50,1.99 µM
same,CC50,[24]; [30],19.2 µM
same,TGI,[24]; read-out: TGI,63.4 µM
same,GI50,[24]; read-out: pGI50 (converted),2 µM
same,CC50,[24]; [31],19.1 µM
same,TGI,[24]; read-out: pTGI (converted),5.37 µM
same,growth at 0.01 µM,[25],93%
same,GI50,[26]; read-out: GI50,1.49 µM
same,CC50,[26]; [30],> 100 µM
same,TGI,[26]; read-out: TGI,63.6 µM
same,GI50,[26]; read-out: pGI50 (converted),1.48 µM
same,CC50,[26]; [31],> 100 µM
same,TGI,[26]; read-out: pTGI (converted),6.31 µM
same,GI50,[27]; read-out: GI50,2.5 µM
same,CC50,[27]; [30],47.2 µM
same,TGI,[27]; read-out: TGI,90.6 µM
same,GI50,[27]; read-out: pGI50 (converted),2.57 µM
same,CC50,[27]; [31],46.8 µM
same,TGI,[27]; read-out: pTGI (converted),9.77 µM
same,IC50,[28],2.33 µM
same,GI50,[28]; read-out: GI50,2.33 µM
same,CC50,[28]; [30],> 100 µM
same,TGI,[28]; read-out: TGI,92 µM
same,GI50,[28]; read-out: pGI50 (converted),2.34 µM
same,CC50,[28]; [31],> 100 µM
same,TGI,[28]; read-out: pTGI (converted),9.12 µM
same,growth at 1 µM,[29],99%
